In ChEMBL document CHEMBL4038287, “Design, synthesis, and in vitro evaluation of novel antifungal triazoles” (2017) one finds MIC80 data, which are given here for 18 compounds.

A word on the MIC80: it is an inhibitory concentration at the 80% level, which refers to growth in some studies and to a panel of isolates in others.

What all share (assay type): functional
For one experiment, the system named is Cryptococcus neoformans. The experiment in a line: Antifungal activity against Cryptococcus neoformans isolate 32605 by micro-broth dilution method. A general note: Dilution methods test growth across graded concentrations, often in twofold steps.
The next experiment concerns Aspergillus fumigatus. The experiment in a line: Antifungal activity against Aspergillus fumigatus isolate 7544 by micro-broth dilution method.
The next experiment concerns Nannizzia gypsea. Description: Antifungal activity against Microsporum gypseum isolate cmccftla by micro-broth dilution method.
Another experiment deals with Trichophyton rubrum. Description: Antifungal activity against Trichophyton rubrum isolate cmccftla by micro-broth dilution method.
Another experiment deals with Nakaseomyces glabratus. The experiment in a line: Antifungal activity against Candida glabrata isolate 537 by micro-broth dilution method.
A further experiment deals with Candida parapsilosis. The experiment in a line: Antifungal activity against Candida parapsilosis isolate 22019 by micro-broth dilution method. Particulars: Lodderomyces parapsilosis.
In experiment [1] the test system is Candida albicans. The experiment in a line: Antifungal activity against Candida albicans isolate Y0109 by micro-broth dilution method.
The subject of experiment [2] is Candida albicans. The experiment in a line: Antifungal activity against Candida albicans isolate SC5314 by micro-broth dilution method.

≈ marks a conversion by molar mass, not a printed value. Some results are limits rather than exact numbers.

`C[C@@H](c1cc(-c2ccc([N+](=O)[O-])cc2)no1)[C@](O)(Cn1cncn1)c1ccc(F)cc1F`: the MIC80 was 0.125 µg/mL (≈ 0.283 µM) in the experiment on Cryptococcus neoformans; above 8 µg/mL in the experiment with Aspergillus fumigatus; 2 µg/mL (≈ 4.53 µM) with Nannizzia gypsea; 1 µg/mL (≈ 2.27 µM) in the experiment on Trichophyton rubrum; 0.5 µg/mL (≈ 1.13 µM) with Nakaseomyces glabratus; 0.5 µg/mL (≈ 1.13 µM) against Candida parapsilosis. The MIC80 in the experiment with Candida albicans [1] and in the experiment with Candida albicans [2] was 0.125 µg/mL (≈ 0.283 µM) each time.

In the case of `C[C@@H](c1nc(-c2ccc(C#N)cc2)cs1)[C@](O)(Cn1cncn1)c1ccc(F)cc1F` [RAVUCONAZOLE], the MIC80 with Cryptococcus neoformans was 0.125 µg/mL (≈ 0.286 µM); with Aspergillus fumigatus it was 2 µg/mL (≈ 4.57 µM); against Nannizzia gypsea, 1 µg/mL (≈ 2.29 µM); in the experiment on Trichophyton rubrum it was 0.125 µg/mL (≈ 0.286 µM); with Nakaseomyces glabratus it was 0.125 µg/mL (≈ 0.286 µM); against Candida parapsilosis, 0.25 µg/mL (≈ 0.571 µM). In addition, the MIC80 against Candida albicans [1] and against Candida albicans [2] was 0.0625 µg/mL (≈ 0.143 µM) each time.

As to `C[C@@H](c1cc(-c2ccc(C#N)cc2)no1)[C@](O)(Cn1cncn1)c1ccc(F)cc1F`, the MIC80 in the experiment with Cryptococcus neoformans stood at 0.125 µg/mL (≈ 0.297 µM); in the experiment with Aspergillus fumigatus, 8 µg/mL (≈ 19 µM); against Nannizzia gypsea, 1 µg/mL (≈ 2.37 µM); against Trichophyton rubrum it was 0.125 µg/mL (≈ 0.297 µM); in the experiment with Nakaseomyces glabratus it was 0.0625 µg/mL (≈ 0.148 µM); against Candida parapsilosis, 0.125 µg/mL (≈ 0.297 µM). For the same compound, the MIC80 in the experiment on Candida albicans [1] and against Candida albicans [2] was 0.25 µg/mL (≈ 0.593 µM) in each case.

As to `C[C@@H](c1cc(-c2c(F)cccc2F)no1)[C@](O)(Cn1cncn1)c1ccc(F)cc1F`, the MIC80 was 0.125 µg/mL (≈ 0.289 µM) in the experiment on Cryptococcus neoformans; 2 µg/mL (≈ 4.63 µM) in the experiment on Aspergillus fumigatus; 1 µg/mL (≈ 2.31 µM) against Nannizzia gypsea; 0.125 µg/mL (≈ 0.289 µM) against Trichophyton rubrum; 0.0625 µg/mL (≈ 0.145 µM) in the experiment on Nakaseomyces glabratus; 0.125 µg/mL (≈ 0.289 µM) against Candida parapsilosis. The MIC80 against Candida albicans [1] was 0.0625 µg/mL (≈ 0.145 µM); in the experiment on Candida albicans [2], 0.125 µg/mL (≈ 0.289 µM).

Consider `C[C@@H](c1cc(-c2ccccc2F)no1)[C@](O)(Cn1cncn1)c1ccc(F)cc1F`, for which the MIC80 against Cryptococcus neoformans is 0.125 µg/mL (≈ 0.302 µM); against Aspergillus fumigatus, 2 µg/mL (≈ 4.83 µM); against Nannizzia gypsea, 0.5 µg/mL (≈ 1.21 µM); with Trichophyton rubrum, 0.0625 µg/mL (≈ 0.151 µM); in the experiment on Nakaseomyces glabratus it was 0.0313 µg/mL (≈ 0.0755 µM); against Candida parapsilosis it was 0.125 µg/mL (≈ 0.302 µM). Moreover, the results for the MIC80 in the experiment with Candida albicans [1] and against Candida albicans [2] were 0.0625 µg/mL (≈ 0.151 µM) and 0.0313 µg/mL (≈ 0.0755 µM), respectively.

With `C[C@@H](c1cc(-c2c(F)cc(F)cc2F)no1)[C@](O)(Cn1cncn1)c1ccc(F)cc1F`, the MIC80 is 0.0625 µg/mL (≈ 0.139 µM) with Cryptococcus neoformans; 2 µg/mL (≈ 4.44 µM) with Aspergillus fumigatus; 1 µg/mL (≈ 2.22 µM) against Nannizzia gypsea; 0.5 µg/mL (≈ 1.11 µM) against Trichophyton rubrum; 0.0625 µg/mL (≈ 0.139 µM) with Nakaseomyces glabratus; 0.125 µg/mL (≈ 0.278 µM) against Candida parapsilosis. Further, the MIC80 came to 0.125 µg/mL (≈ 0.278 µM) with Candida albicans [1] and 0.25 µg/mL (≈ 0.555 µM) in the experiment with Candida albicans [2].

Consider `C[C@@H](c1cc(-c2ccc(Cl)cc2)no1)[C@](O)(Cn1cncn1)c1ccc(F)cc1F`, for which the MIC80 is 0.125 µg/mL (≈ 0.29 µM) with Cryptococcus neoformans; 4 µg/mL (≈ 9.28 µM) against Aspergillus fumigatus; 1 µg/mL (≈ 2.32 µM) in the experiment with Nannizzia gypsea; 0.125 µg/mL (≈ 0.29 µM) against Trichophyton rubrum; 0.125 µg/mL (≈ 0.29 µM) in the experiment with Nakaseomyces glabratus; 0.125 µg/mL (≈ 0.29 µM) in the experiment with Candida parapsilosis. In addition, the MIC80 against Candida albicans [1] was found to be 0.0313 µg/mL (≈ 0.0726 µM); in the experiment with Candida albicans [2], 0.125 µg/mL (≈ 0.29 µM).

For `C[C@@H](c1cc(-c2ccc(OC(F)(F)F)cc2)no1)[C@](O)(Cn1cncn1)c1ccc(F)cc1F`, the MIC80 turned out to be 0.125 µg/mL (≈ 0.26 µM) in the experiment on Cryptococcus neoformans; 8 µg/mL (≈ 16.7 µM) against Aspergillus fumigatus; 4 µg/mL (≈ 8.33 µM) with Nannizzia gypsea; 0.125 µg/mL (≈ 0.26 µM) in the experiment with Trichophyton rubrum; 0.0625 µg/mL (≈ 0.13 µM) with Nakaseomyces glabratus; 0.5 µg/mL (≈ 1.04 µM) against Candida parapsilosis. For the same compound, the MIC80 against Candida albicans [1] came to 0.0313 µg/mL (≈ 0.0652 µM); against Candida albicans [2] it was 0.125 µg/mL (≈ 0.26 µM).

Consider `C[C@@H](c1cc(-c2ccc(Cl)cc2F)no1)[C@](O)(Cn1cncn1)c1cc(F)ccc1F`, for which the MIC80 against Cryptococcus neoformans was 0.125 µg/mL (≈ 0.279 µM); with Aspergillus fumigatus, above 8 µg/mL; against Nannizzia gypsea, 8 µg/mL (≈ 17.8 µM); with Trichophyton rubrum, 1 µg/mL (≈ 2.23 µM); with Nakaseomyces glabratus it was 0.0313 µg/mL (≈ 0.0697 µM); with Candida parapsilosis, 1 µg/mL (≈ 2.23 µM). The MIC80 was found to be 0.25 µg/mL (≈ 0.557 µM) in the experiment on Candida albicans [1] and 0.5 µg/mL (≈ 1.11 µM) against Candida albicans [2].

Turning to `C[C@@H](c1cc(-c2ccc(F)cc2)no1)[C@](O)(Cn1cncn1)c1ccc(F)cc1F`, the MIC80 against Cryptococcus neoformans turned out to be 0.125 µg/mL (≈ 0.302 µM); in the experiment on Aspergillus fumigatus it was 2 µg/mL (≈ 4.83 µM); against Nannizzia gypsea, 0.5 µg/mL (≈ 1.21 µM); in the experiment on Trichophyton rubrum, 0.0625 µg/mL (≈ 0.151 µM); with Nakaseomyces glabratus it was 0.0313 µg/mL (≈ 0.0755 µM); against Candida parapsilosis, 0.0625 µg/mL (≈ 0.151 µM). For the same compound, the values for the MIC80 against Candida albicans [1] and in the experiment with Candida albicans [2] were 0.125 µg/mL (≈ 0.302 µM) and 0.25 µg/mL (≈ 0.603 µM), respectively.

With `C[C@@H](c1cc(-c2ccc(F)cc2)no1)[C@](O)(Cn1cncn1)c1cc(F)ccc1F`, the MIC80 was 0.0625 µg/mL (≈ 0.151 µM) against Cryptococcus neoformans; above 8 µg/mL with Aspergillus fumigatus; above 8 µg/mL in the experiment with Nannizzia gypsea; 1 µg/mL (≈ 2.41 µM) against Trichophyton rubrum; 0.0625 µg/mL (≈ 0.151 µM) in the experiment with Nakaseomyces glabratus; 0.25 µg/mL (≈ 0.603 µM) in the experiment with Candida parapsilosis. For the same compound, the MIC80 in the experiment with Candida albicans [1] and in the experiment on Candida albicans [2] was 0.125 µg/mL (≈ 0.302 µM) each time.

With `C[C@@H](c1cc(-c2ccc(F)cc2F)no1)[C@](O)(Cn1cncn1)c1ccc(F)cc1F`, the MIC80 against Cryptococcus neoformans turned out to be 0.125 µg/mL (≈ 0.289 µM); against Aspergillus fumigatus, 2 µg/mL (≈ 4.63 µM); against Nannizzia gypsea, 0.5 µg/mL (≈ 1.16 µM); with Trichophyton rubrum, 0.0625 µg/mL (≈ 0.145 µM); against Nakaseomyces glabratus, 0.0313 µg/mL (≈ 0.0724 µM); in the experiment on Candida parapsilosis it was 0.125 µg/mL (≈ 0.289 µM). For the same compound, the MIC80 with Candida albicans [1] and in the experiment with Candida albicans [2] was 0.0625 µg/mL (≈ 0.145 µM) throughout.

On to `C[C@@H](c1cc(-c2ccc(OC(F)F)cc2)no1)[C@](O)(Cn1cncn1)c1ccc(F)cc1F`, for which the MIC80 with Cryptococcus neoformans worked out at 0.125 µg/mL (≈ 0.27 µM); against Aspergillus fumigatus, 8 µg/mL (≈ 17.3 µM); in the experiment with Nannizzia gypsea, 1 µg/mL (≈ 2.16 µM); in the experiment on Trichophyton rubrum it was 0.125 µg/mL (≈ 0.27 µM); with Nakaseomyces glabratus it was 0.0625 µg/mL (≈ 0.135 µM); against Candida parapsilosis, 0.125 µg/mL (≈ 0.27 µM). Besides, the MIC80 in the experiment with Candida albicans [1] and in the experiment with Candida albicans [2] was 0.0625 µg/mL (≈ 0.135 µM) each time.

With `C[C@@H](c1cc(-c2ccc(C(F)(F)F)cc2)no1)[C@](O)(Cn1cncn1)c1ccc(F)cc1F`, the MIC80 is 0.125 µg/mL (≈ 0.269 µM) against Cryptococcus neoformans; above 8 µg/mL against Aspergillus fumigatus; 2 µg/mL (≈ 4.31 µM) in the experiment on Nannizzia gypsea; 2 µg/mL (≈ 4.31 µM) in the experiment with Trichophyton rubrum; 1 µg/mL (≈ 2.15 µM) in the experiment with Nakaseomyces glabratus; 1 µg/mL (≈ 2.15 µM) in the experiment with Candida parapsilosis. The MIC80 against Candida albicans [1] is 0.125 µg/mL (≈ 0.269 µM); against Candida albicans [2], 0.5 µg/mL (≈ 1.08 µM).

Turning to `C[C@@H](c1cc(-c2ccc(F)c(F)c2)no1)[C@](O)(Cn1cncn1)c1cc(F)ccc1F`, the MIC80 against Cryptococcus neoformans was 0.125 µg/mL (≈ 0.289 µM); in the experiment with Aspergillus fumigatus, above 8 µg/mL; against Nannizzia gypsea, above 8 µg/mL; in the experiment with Trichophyton rubrum, 1 µg/mL (≈ 2.31 µM); in the experiment with Nakaseomyces glabratus, 0.0156 µg/mL (≈ 0.0361 µM); with Candida parapsilosis, 0.25 µg/mL (≈ 0.578 µM). Besides, the MIC80 with Candida albicans [1] and against Candida albicans [2] was 0.125 µg/mL (≈ 0.289 µM) throughout.

Take `C[C@@H](c1cc(-c2ccc(S(C)(=O)=O)cc2)no1)[C@](O)(Cn1cncn1)c1ccc(F)cc1F`: the MIC80 in the experiment with Cryptococcus neoformans was 0.25 µg/mL (≈ 0.527 µM); in the experiment with Aspergillus fumigatus, 8 µg/mL (≈ 16.9 µM); in the experiment with Nannizzia gypsea it was 4 µg/mL (≈ 8.43 µM); against Trichophyton rubrum, 1 µg/mL (≈ 2.11 µM); against Nakaseomyces glabratus it was 0.25 µg/mL (≈ 0.527 µM); in the experiment on Candida parapsilosis it was 0.125 µg/mL (≈ 0.263 µM). Further, the MIC80 against Candida albicans [1] and in the experiment with Candida albicans [2] was 0.125 µg/mL (≈ 0.263 µM) in each case.

Take `C[C@@H](c1cc(-c2ccccc2F)no1)[C@](O)(Cn1cncn1)c1cc(F)ccc1F`: the MIC80 in the experiment on Cryptococcus neoformans was 0.0625 µg/mL (≈ 0.151 µM); in the experiment on Aspergillus fumigatus it was above 8 µg/mL; against Nannizzia gypsea, above 8 µg/mL; with Trichophyton rubrum, 2 µg/mL (≈ 4.83 µM); in the experiment on Nakaseomyces glabratus, 0.0625 µg/mL (≈ 0.151 µM); with Candida parapsilosis, 1 µg/mL (≈ 2.41 µM). Moreover, the MIC80 in the experiment with Candida albicans [1] and in the experiment with Candida albicans [2] was 0.5 µg/mL (≈ 1.21 µM) in each case.

Consider `C[C@@H](c1cc(-c2ccc(F)cc2F)no1)[C@](O)(Cn1cncn1)c1cc(F)ccc1F`, for which the MIC80 in the experiment with Cryptococcus neoformans was 0.0625 µg/mL (≈ 0.145 µM); against Aspergillus fumigatus, above 8 µg/mL; against Nannizzia gypsea, 4 µg/mL (≈ 9.25 µM); in the experiment with Trichophyton rubrum, 1 µg/mL (≈ 2.31 µM); against Nakaseomyces glabratus, 0.0625 µg/mL (≈ 0.145 µM); in the experiment on Candida parapsilosis it was 1 µg/mL (≈ 2.31 µM). The figures for the MIC80 against Candida albicans [1] and in the experiment with Candida albicans [2] were 0.125 µg/mL (≈ 0.289 µM) and 0.25 µg/mL (≈ 0.578 µM), respectively.
